Experiments:
[1] = tested on: vertebral fractures in osteoporotic post-menopausal women
Protocol: VERTEBRAL FRACTURES—Calculations of prevalent and incident categorical vertebral fractures were performed by comparing each patient's baseline vertebral heights with a reference population (prevalent fracture) and with their follow-up heigiits (incident fractures). Only data from the true baselines were used to determine prevalent fractures. Any vertebral height ratio more than three standard deviations below its corresponding population reference value was defined as a prevalent vertebral fracture. An incident fracture was defined as greater than or equal to a 20% reduction from baseline vertebral height, with an absolute decrease of at least 4 mm in any vertebral height between baseline and follow-up.
(§1) Postmenopausal women having a “low” lumbar spinal bone mineral density, defined as either a bone mineral density (BMD) of less than or equal to 0.92 g/cm^2 (+ or −0.02 g/cm^2) as measured by Lunar DPX method, or less than or equal to 0.80 g/cm^2 (+ or −0.02 g/cm^2) as measured by the Hologic QDR method are considered to have osteoporosis. This definition corresponds to a BMD of approximately two and one-half standard deviations below the mean BMD of mature pre-menopausal Caucasian women in the United States. Patients are otherwise in good health based on medical history, a physical examination and a laboratory screening evaluation.
(§2) Data was collected on a total of 881 patients from two study groups (cohorts), following virtually identical protocol design and procedures, except that one study was conducted in the United States, and the other was conducted in Canada, Mexico, Europe, Israel, South America, Australia and New Zealand. Data from the two groups was then pooled. […] Additionally, all patients received dietary evaluation and instruction on calcium intake.
(§3) Assessment of vertebral fracture and vertebral deformity (SDI) was based on measurements from lateral spine x-rays, blinded to sequence. Lateral spine x-rays were taken at baseline, one, two and three years. The process of reading the x-rays involved a computerized entry of measurements taken at each of the vertebrae noted on the x-rays, a process known as digitization. […] A computer mouse with cross-hairs is used to enter the data as X,Y coordinates into a commercially available digitization board and computer software program, which computes the distance between landmarks (vertebral heights) in millimeters.

[2] = tested on: vertebral deformity in osteoporotic post-menopausal women; details: after three years
Description: as §1, §2, §3

[3] = tested on: decrease in stature in osteoporotic post-menopausal women; details: over three years
Description: as §1, §2

NCCCC(O)(P(=O)(O)O)P(=O)(O)O [alendronate, 4-amino-1-hydroxy-butylidene-1,1-bisphosphonate]
number of vertebral fractures per 100 patients ([1]; three years): 4.2 | women with a new vertebral fracture ([1]; three years of study, 17 of 526 women, oral 5, 10 or 20/5 mg daily pooled, p=0.034 vs placebo): 3.23% | proportion of patients experiencing two or more fractures among patients with at least one incident vertebral fracture ([1]; three years, 3/17): 18% | mild fractures (end-plate deformity fractures) among women who sustained an incident fracture ([1]; three years, 6/17): 6/17 (35.3%) | severe fractures (crush or wedge fractures) among women who sustained an incident fracture ([1]; three years, 11/17): 11/17 (64.7%) | reduction in vertebral fracture rate per 100 patients compared to placebo ([1]; total number of vertebral fractures): at least 63% | SDI mean change from baseline, women with increased deformity [2]: 0.143 | SDI mean change from baseline, overall ([2]; all women): 0.041 | patients with progression (increase) in vertebral deformity by SDI ([2]; p=0.028 by Chi-square test): 33% | mean stature lost in patients who sustained at least one vertebral fracture [3]: 5.9 mm

From patent US20010051616A1, “METHOD OF LESSENING THE RISK OF VERTEBRAL FRACTURES” (priority 1995, published 2001)
